Data from patent US20040097377A1, “Pesticidal spinosyn derivates” (priority 2003, published 2004).

Legend:
[1] = test system: Tobacco Budworm (Heliothis virescens); test: Tobacco budworm feeding bioassay (egg and larval stage, 96-well agar diet plate, percent mortality); assay type: in vivo; conditions: average of three replicates
Method: (§1) Tobacco Budworm (Heliothis virescens) and Beet Armyworm (Spodoptera littoralis) Feeding Bioassay
(§2) To compare insecticidal activities of the test compounds against egg and larval stage Heliothis virescens or Spodoptera littoralis, 50 ul of a 1:1 acetone:water solution was added to each sample and then solublized for one-hour using an orbital shaker. Each of the resulting sample solutions (50, 120, or 250 ppm) was then applied to a well in a 96-well microtiter plate, each well containing an artificial agar-based lepidoptera diet (modified Shorey diet, Southland Products, Lake Village, Ariz.). Each sample was run in triplicate. Plates were allowed to dry for about 4 hours, covered and held for infestation the next day. Each well of the treated plate was infested with 3-5 eggs (0-2 days old) of either H. virescens or S. littoralis. Plates were then covered with cotton batting and sealed with microplate lid. The treated plates were held inverted in an incubator (80+% rh) for six to seven days. Following the incubation period, the plates were graded for percent mortality using a binocular microscope. Data for each sample was reported as the average percent mortality of the three replicates.

[2] = test system: Beet Armyworm (Spodoptera littoralis); test: Beet armyworm feeding bioassay (egg and larval stage, 96-well agar diet plate, percent mortality); assay type: in vivo; conditions: average of three replicates
Method: as §1, §2

Compound	Tobacco Budworm Diet (6 day) Mortality (%) ([1]; Rate 120 ppm)	Beet Armyworm Diet (6 day) Mortality (%) ([2]; Rate 120 ppm)	Tobacco Budworm Diet (6 day) Mortality (%) ([1]; Rate 50 ppm)	Beet Armyworm Diet (6 day) Mortality (%) ([2]; Rate 50 ppm)
for-(3′,4′-di-O-desmethyl-rham)-IV [Compound 163]	100	100	–	–
CCC=CC1CCCC(OC2CCC(NC)C(C)O2)C(C)C(=O)C2=CC3C(C=CC4CC(OC5OC(C)C(OC)C(O)C5OC)CC43)C2CC(=O)O1 (stereo not shown) [Compound 137, (4″-N-desmethyl-for)-(3′-O-desmethyl-rham)-I]	100	100	–	–
CCC=CC1CCCC(OC2CCC(N(C)C)C(C)O2)C(C)C(=O)C2=CC3C(C=CC4CC(OC5OC(C)C(OC)C(O)C5OC)CC43)C2CC(=O)O1 (stereo not shown) [Compound 6, for-(3′-O-desmethylrham)-I]	–	–	100	100
CCC=CC1CCCC(OC2CCC(N(C)C)C(C)O2)C(C)C(=O)C2=CC3C(C=CC4CC(OC5OC(C)C(O)C(O)C5O)CC43)C2CC(=O)O1 (stereo not shown) [Compound 33, for-(2′,3′,4′-tri-O-desmethyl-rham)-I]	–	–	100	100
CC=CC1CCCC(OC2CCC(N(C)C)C(C)O2)C(C)C(=O)C2=CC3C(C=CC4CC(OC5OC(C)C(O)C(O)C5OC)CC43)C2CC(=O)O1 (stereo not shown) [Compound 43, 24-desmethyl-for-(3′,4′-di-O-desmethyl-rham)-I]	–	–	33	80
CCC=CC1CCCC(OC2CCC(N(C)C)C(C)O2)C(C)C(=O)C2=CC3C(C=CC4C(O)C(OC5OC(C)C(O)C(OC)C5OC)CC43)C2CC(=O)O1 (stereo not shown) [Compound 34, for-(4′-O-desmethyl-rham)-III]	–	–	100	100
COC1C(C)OC(OC2CC3C=CC4C5CC(=O)OC(C=CC(C)O)CCCC(OC6CCC(N(C)C)C(C)O6)C(C)C(=O)C5=CC4C3C2)C(OC)C1O (stereo not shown) [Compound 141, 24-hydroxy-for-(3′-O-desmethyl-rham)-I]	100	67	–	–
CCC=CC1CCCC(OC2CCC(N(C)C)C(C)O2)C(C)C(=O)C2=CC3C(C=CC4C(O)C(OC5OC(C)C(OC)C(O)C5OC)CC43)C2CC(=O)O1 (stereo not shown) [Compound 41, for-(3′-O-desmethyl-rham) III]	–	–	100	100
CCC=CC1CCCC(OC2CCC(N(C)C)C(C)O2)C(C)C(=O)C2=CC3C(C=CC4CC(OC5OC(C)C(O)C(OC)C5OC)CC43)C2CC(=O)O1 (stereo not shown) [Compound 32, for-(4′-O-desmethyl-rham)-I]	–	–	100	100
CCC=CC1CCCC(OC2CCC(N(C)C)C(C)O2)C(C)C(=O)C2=CC3C(C=CC4CC(OC5OC(C)C(OC)C(OC)C5OC)CC43)C2CC(=O)O1 (stereo not shown) [Compound 1, for-rham-I, reference compound]	–	–	100	100
for-(3′,4′-di-O-desmethyl-rham)-II [Compound 44]	–	–	100	100
CCC=CC1CCCC(OC2CCC(N(C)C)C(C)O2)C(C)C(=O)C2=CC3C(C=CC4C(O)C(OC5OC(C)C(O)C(O)C5OC)CC43)C2CC(=O)O1 (stereo not shown) [Compound 40, for-(3′,4′-di-O-desmethyl-rham) III]	–	–	100	93
CCC=CC1CCCC(OC2CCC(N(C)C)C(C)O2)C(C)C(=O)C2=CC3C(C=CC4CC(OC5OC(C)C(O)C(O)C5OC)CC43)C2CC(=O)O1 (stereo not shown) [Compound 37]	–	–	100	100
CCC=CC1CCCC(OC2CCC(N(C)C)C(C)O2)C(C)C(=O)C2=CC3C(C=CC4CC(OC5OC(C)C(OC)C(OC)C5O)CC43)C2CC(=O)O1 (stereo not shown) [Compound 5, for-(2′-O-desmethylrham)-I]	–	–	100	100
